# Reference: article PMC11078746 (Nature, 2024)
# Where “and” joins values, the source holds several entries; their conditions need not be identical. Equal entries are not always repeated.
# System: SW48 xenografts
# Experiment: SW48 xenograft efficacy, compound 3 p.o. twice daily
# Assay type: in vivo, mouse
# Conditions: for Tumour volume (TVol): single mouse, listed as WRNi #4
# Protocol: All animal studies were conducted in accordance with ethics and procedures covered by permit BS-2275 and BS-1975 issued by the Kantonales Veterinäramt Basel-Stadt and in strict adherence to guidelines of the Eidgenössisches Tierschutzgesetz and the Eidgenössische Tierschutzverordnung, Switzerland. All animal studies were approved by the internal ethics committee. All animals had access to food and water ad libitum and were identified with transponders. They were housed in a specific-pathogen-free facility in IVC racks under a 12 h–12 h light–dark cycle. To establish cell-line-derived xenograft models, 6–7-week-old female athymic nude (Crl:NU(NCr)-Foxn1^nu) or SCID-BEIGE (CB17.Cg-PrkdcscidLystbg-J/Crl) mice from Charles River were engrafted subcutaneously with 5 million tumour cells in HBSS (H6648, Sigma-Aldrich). For SNU-407, Lovo, IM95, RL95.2, Ishikawa and IGROV-1, the cells were concentrated in 50% Matrigel (354234, Corning). Patient-derived xenografts were induced and expanded by transplantation as previously described. […] For the efficacy experiment, mice were randomized into groups (n = 5–6) for a mean tumour size of 100–150 mm^3. […] Blood samples were collected on day 7 and 91. […] Tumour responses are reported with the measures of tumour volumes from the treatment start. […] Animals were randomized (n = 3) and tumour samples were collected at 0, 1, 4, 8 and 24 h on the first day and then collected 4 h after the last treatment on day 3, 8, 10, 14 (including a 24 h timepoint), 17 and 21. Tumours were excised, weighed, either frozen in liquid nitrogen and cryogenic dry pulverized with the CryoPrep system (model CP-02, Covaris) or processed to FFPE after fixation. […] On day 12, blood samples were collected for PK analysis. On the last day (3 h after the last treatment), tumours were excised, weighed, frozen in liquid nitrogen and cryogenic dry pulverized for PD analysis.
compound,measurement,setting,value
CCc1c(N2CCN(C(=O)c3ncccc3O)CC2)c(=O)n2nc(C3=CCOCC3)nc2n1CC(=O)Nc1ccc(C(F)(F)F)cc1C [compound 3],Mean TVol,"15mg/kg BID, day 0",186.30 mm3
same,Tumour volume (TVol),"15mg/kg BID, day 0",125.21 mm3 and 176.57 mm3 and 158.22 mm3 and 139.01 mm3 and 236.47 mm3 and 285.36 mm3 and 183.25 mm3
same,Mean TVol,"15mg/kg BID, day 4",363.88 mm3
same,Tumour volume (TVol),"15mg/kg BID, day 4",335.90 mm3 and 349.83 mm3 and 278.60 mm3 and 343.34 mm3 and 317.21 mm3 and 499.75 mm3 and 422.53 mm3
same,Mean TVol,"15mg/kg BID, day 6",401.70 mm3
same,Tumour volume (TVol),"15mg/kg BID, day 6",446.30 mm3 and 500.68 mm3
same,Mean TVol,"15mg/kg BID, day 8",483.57 mm3
same,Mean TVol,"15mg/kg BID, day 11",653.78 mm3
same,Tumour volume (TVol),"15mg/kg BID, day 11",649.03 mm3 and 796.01 mm3 and 408.88 mm3 and 697.95 mm3 and 448.35 mm3 and 901.30 mm3 and 674.92 mm3
same,Mean TVol,"15mg/kg BID, day 13",737.71 mm3
same,Tumour volume (TVol),"15mg/kg BID, day 13",506.43 mm3 and 897.69 mm3 and 575.84 mm3 and 720.03 mm3 and 530.25 mm3 and 1055.13 mm3 and 878.60 mm3
same,Mean TVol,"50mg/kg BID, day 0",186.25 mm3
same,Tumour volume (TVol),"50mg/kg BID, day 0",104.69 mm3 and 206.32 mm3 and 158.46 mm3 and 258.06 mm3 and 184.54 mm3 and 140.44 mm3 and 251.24 mm3
same,Mean TVol,"50mg/kg BID, day 4",286.97 mm3
same,Tumour volume (TVol),"50mg/kg BID, day 4",175.53 mm3 and 349.15 mm3 and 205.03 mm3 and 394.61 mm3 and 285.83 mm3 and 247.36 mm3 and 351.29 mm3
same,Mean TVol,"50mg/kg BID, day 6",317.35 mm3
same,Tumour volume (TVol),"50mg/kg BID, day 6",143.51 mm3 and 438.53 mm3 and 201.74 mm3 and 334.71 mm3 and 301.07 mm3 and 265.24 mm3 and 536.64 mm3
same,Mean TVol,"50mg/kg BID, day 8",332.70 mm3
same,Mean TVol,"50mg/kg BID, day 11",410.64 mm3
same,Tumour volume (TVol),"50mg/kg BID, day 11",304.71 mm3 and 545.58 mm3 and 199.89 mm3 and 340.76 mm3 and 293.59 mm3 and 390.68 mm3 and 799.25 mm3
same,Mean TVol,"50mg/kg BID, day 13",453.33 mm3
same,Tumour volume (TVol),"50mg/kg BID, day 13",281.31 mm3 and 743.48 mm3 and 206.77 mm3 and 483.85 mm3 and 288.10 mm3 and 511.66 mm3 and 658.13 mm3
same,tumour response,150 mg per kg orally twice daily,stable disease
same,Mean TVol,"150mg/kg BID, day 0",186.70 mm3
same,Tumour volume (TVol),"150mg/kg BID, day 0 post 1st dose",121.54 mm3 and 271.88 mm3 and 115.87 mm3 and 175.12 mm3 and 222.88 mm3 and 177.21 mm3 and 222.42 mm3
same,Mean TVol,"150mg/kg BID, day 4",226.51 mm3
same,Tumour volume (TVol),"150mg/kg BID, day 4",200.34 mm3 and 361.96 mm3 and 112.57 mm3 and 220.17 mm3 and 244.46 mm3 and 160.01 mm3 and 286.05 mm3
same,Mean TVol,"150mg/kg BID, day 6",224.94 mm3
same,Tumour volume (TVol),"150mg/kg BID, day 6",174.76 mm3 and 361.01 mm3 and 147.06 mm3 and 189.44 mm3 and 231.82 mm3 and 170.17 mm3 and 300.33 mm3
same,Mean TVol,"150mg/kg BID, day 8",196.74 mm3
same,Mean TVol,"150mg/kg BID, day 11",203.13 mm3
same,Tumour volume (TVol),"150mg/kg BID, day 11",147.98 mm3 and 318.20 mm3 and 124.24 mm3 and 228.02 mm3 and 223.70 mm3 and 145.76 mm3 and 234.03 mm3
same,Mean TVol,"150mg/kg BID, day 13",172.38 mm3
same,Tumour volume (TVol),"150mg/kg BID, day 13",158.96 mm3 and 252.06 mm3 and 121.12 mm3 and 163.89 mm3 and 181.33 mm3 and 166.20 mm3 and 163.13 mm3
same,Reg,150 mg/kg p.o. twice daily,4 % Reg
